How the values were obtained:
Type in all cases: cell-based, human
[1] = system: PI3K/Akt signaling pathway in SH-SY5Y cells; experiment: Western blotting of PI3K/Akt signaling pathway after 8 min incubation; settings: 37 °C
Procedure: Figure 1 Prolactin-releasing peptide 31 (PrRP31) and palm^11-PrRP31 increased phosphoinositide-3 kinase (PI3K/Akt) signaling pathway in SH-SY5Y cells. Immunoblots: (a) and their quantifications: (b). SH-SY5Y cells were incubated either with PrRP31 and its palmitoylated analog and scrambled at a final concentration 1 × 10^-5 M, or with insulin at the final concentration 1 × 10^−7 M at 37 °C for 8 min, or medium alone (control). Activation was expressed as the ratio of the activated protein to the total amount of the protein, both normalized to loading control, glyceraldehyde 3-phosphate dehydrogenase (GAPDH). Data are presented as the means ± SEM as a percentage of control cells analyzed by one-way ANOVA followed by the Dunnett post hoc test, * p < 0.5, ** p < 0.01, **** p < 0.0001 (n = 3, each sample in triplicates).
(§1) For the investigation of the molecular mechanism of PrRP31 and its analog in the cells, signaling pathways were studied by Western blotting (WB). The cells were cultured in 6-well plates at a density of 800,000 cells per well. Growth medium was exchanged for serum-free DMEM 16 h before an experiment, and then, the cells were incubated with PrRP31, palm^11-PrRP31, or scrambled peptide at a final concentration of 1 × 10^−5 M or insulin at a concentration of 1 × 10^−7 M at 37 °C for 8 min. The cells were rapidly cooled on ice and lysed in 400 µl of Laemmli sample buffer (62.5 mM Tris-HCl with pH 6.8, 2% SDS, 10% glycerol, 0.01% bromophenol blue, 5% mercaptoethanol, 50 mM NaF, and 1 mM Na3VO4) and stored at −20 °C. Afterward, the cell lysates were analyzed by WB. SDS-electrophoresis and WB were carried out using a Criterion system with a 26-well 4−15% Criterion^TM TGX^TM Precast Midi Protein Gel (Bio-Rad, Hercules, CA, USA) at a constant voltage of 200 V or 100 V, respectively.
(§2) Subsequently, the membranes were incubated overnight with primary antibody (Ab) at 4 °C, according to the manufacturer´s instructions (Table 2). The next day, the membranes were incubated with an HRP-linked secondary antibody for 1 h at room temperature. Chemiluminescence was visualized with a ChemiDoc^TM System (Bio-Rad). Band intensities were normalized using glyceraldehyde 3-phosphate dehydrogenase (GAPDH) as an internal loading control.
(§3) Eight minutes of incubation was performed in a series of experiments with different exposure times (5, 10, 15, 30, and 60 min) to PrRP31 and its palmitoylated analog. Activation of analogs was strongest after 10 min. Then, the cells were treated with inhibitors of signaling pathways for 2 min, and analogs were added for 8 min. The time of exposure was set to 8 min to ensure that the incubation time for PrRP31 and its palmitoylated analog was the same. The controls and compounds were tested in triplicate in three independent experiments. The PI3K/Akt pathway is one of the main signaling pathways of insulin; therefore, insulin was used as a positive control. Scrambled peptide was used as a negative control. Activation is expressed as the ratio of the activated protein to the total amount of the protein. GAPDH was used as a loading control.

[2] = system: p-m-Tor, p-GSK-3β, p-ERK, p-CREB in SH-SY5Y cells; experiment: Western blotting with selective inhibitors of signaling pathways
Procedure: Immunoblots with PrRP31 and palm^11-PrRP31: (a) and insulin: (b) and their quantifications: (c). SH-SY5Y cells were incubated firstly with selective inhibitors for 2 min and then either with PrRP31 and its palmitoylated analog at a final concentration 1 × 10^−5 M, or with insulin in the final concentration 1 × 10^−7 M at 37 °C for 8 min, or alone in serum-free medium. Activated protein was normalized to loading control, GAPDH. Data are presented as the means ± SEM as a percentage of control cells treated with medium alone. Analysis is made between groups as shown in the graph by a Student’s t-test, * p < 0.5, ** p < 0.01, *** p < 0.001(each sample in triplicates).
as §3
For further research, inhibitors of signaling pathways were used. The growth medium was exchanged for serum-free DMEM 16 h before the experiment. On the day of the experiment, cells were incubated for 2 min with rapamycin, SB216736 or U0126 at a final concentration of 1 × 10^−6 M; then, PrRP31, palm^11-PrRP31 or scrambled peptide at a final concentration of 1 × 10^−5 M or insulin at a concentration of 1 × 10^−7 M was added for 8 min. The plates were stored at 37 °C. The controls and compounds were tested in triplicate.

[3] = system: p-c-Jun, p-ERK, p-Bad, Bax/Bcl-2 in SH-SY5Y cells; experiment: Western blotting of anti-apoptotic signaling in MG-stressed cells; settings: 0.6 mM MG 16 h vs control cells
Procedure: (§4) Figure 7 PrRP31 and palm^11-PrRP31 affected anti-apoptotic signaling in SH-SY5Y cells. Immunoblots: (a) and their quantifications: (b). SH-SY5Y cells were pretreated with PrRP31 and palm^11-PrRP31 at a concentration of 1 × 10^−5 M for 4 h and then stressed with 0.6 mM MG for 16 h. Activation was expressed as the ratio of the activated protein to the total amount of the protein, both normalized to loading control, GAPDH. Data are presented as the means ± SEM as a percentage of control cells treated with medium alone. Analysis is made vs. MG by a Student’s t-test, * p < 0.5, ** p < 0.01 (each sample in triplicates).
as §1, §2
(§5) For analysis of the molecular mechanism during MG stress, the growth medium was exchanged for serum-free DMEM 16 h before the experiment. The cells were pretreated with 1 × 10^−5 M PrRP31 or palm^11-PrRP31 for 4 h; then, MG was added to a final concentration of 0.6 mM, and the cells were incubated at 37 °C for 16 h. The controls and compounds were tested in triplicate.

[4] = system: Tau protein phosphorylation in SH-SY5Y cells; experiment: Western blotting of Tau phosphorylation in MG-stressed cells; settings: 0.6 mM MG 16 h vs control cells
Procedure: as §4, with “8” for “7”, “attenuate Tau hyperphosphorylation at the epitope Ser396” for “affected anti-apoptotic signaling”, “SH-SY5Y. Immunoblots with:” for “SH-SY5Y cells. Immunoblots:”, “sample replicate” for “sample”, “triplicate).” for “triplicates).”
as §1, §2, §5

[5] = PrRP31 and palm^11-PrRP31 1 × 10^−5 M, insulin 1 × 10^−7 M, 37 °C, 8 min
[6] = inhibitor 1 × 10^−6 M for 2 min, then peptide for 8 min, under the control level

insulin: human insulin used as a positive control
activation of proteins of the insulin signaling cascade ([1]; positive control, 1 × 10^−7 M): significantly activated
p-CREB after incubation with peptide, no inhibitor [2, 5]: increased
p-ERK after incubation with peptide, no inhibitor [2, 5]: increased
p-m-Tor (Ser2448) after application of peptide, no inhibitor ([2]; PrRP31 and palm^11-PrRP31 1 × 10^−5 M, insulin 1 × 10^−7 M, 37 °C, 8 min, normalized to GAPDH, triplicates): significantly increased
p-GSK-3β (Ser9) after incubation with peptide, no inhibitor ([2]; palm^11-PrRP31 1 × 10^−5 M, insulin 1 × 10^−7 M, 37 °C, 8 min, normalized to GAPDH, triplicates): slight increase

N#CC(=C(/N)Sc1ccccc1N)/C(C#N)=C(/N)Sc1ccccc1N [U0126]
effect on the increase of p-ERK and p-CREB by PrRP31, palm^11-PrRP31 and insulin [2, 6]: significantly blocked

GHFTHSIRMI K^11 (γ-E (N-palm))TPRNASVYARPCitDWWGICitPES [scrambled-palm^11-PrRP31]
effect on the PI3K/Akt pathway ([1]; negative control, 1 × 10^-5 M): did not significantly affect

Cn1cc(C2=C(c3ccc(Cl)cc3Cl)C(=O)NC2=O)c2ccccc21 [SB216736]
effect on the level of p-GSK-3β (Ser9) in cells treated with insulin ([2]; inhibitor 1 × 10^−6 M for 2 min, then insulin 1 × 10^−7 M for 8 min): tended to decrease
effect on the palm^11-PrRP31-induced increase of p-GSK-3β (Ser9) ([2]; inhibitor 1 × 10^−6 M for 2 min, then palm^11-PrRP31 1 × 10^−5 M for 8 min): significantly reversed

CO[C@H]1C[C@@H]2CC[C@@H](C)[C@@](O)(O2)C(=O)C(=O)N2CCCC[C@H]2C(=O)O[C@H]([C@H](C)C[C@@H]2CC[C@@H](O)[C@H](OC)C2)CC(=O)[C@H](C)/C=C(\C)[C@@H](O)[C@@H](OC)C(=O)[C@H](C)C[C@H](C)/C=C/C=C/C=C/1C [rapamycin, Rapamycin]
effect on the increase of p-m-Tor (Ser2448) by PrRP31, palm^11-PrRP31 and insulin [2, 6]: inhibited

CC(=O)C=O [MG, methylglyoxal, reference compound]
level of p-Bad (Ser112)/Bad after MG [3]: increased
level of p-Bad (Ser136)/Bad after MG [3]: increased
level of p-c-Jun (Ser73)/c-Jun after MG [3]: increased
Tau phosphorylation at Ser198/199/202 (Tau 1)/Tau 5 after MG [4]: tended to increase
Tau phosphorylation at Ser396 after MG [4]: increased

From article PMC7503370, “Cellular Signaling and Anti-Apoptotic Effects of Prolactin-Releasing Peptide and Its Analog on SH-SY5Y Cells” (International Journal of Molecular Sciences, 2020)
